Reference: PubChem BioAssay AID248 (DTP/NCI, 2004)
Toxic doses and inconclusive results are not listed. Rule as the data show it: active = T/C of 150% or more; inactive = T/C below 125%.

Tested on: L1210 leukemia ip in BDF1 mice, survival T/C
Assay: NCI In Vivo Anticancer Drug Screen. Data for tumor model L1210 Leukemia (intraperitoneal) in B6D2F1 (BDF1) mice
Details: endpoint: mean survival time, higher = longer survival
Procedure, shortened: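 Antitumor effect is assessed in tumor-bearing animals. Survival in the compound arm is compared with a vehicle-dosed control arm and expressed as their quotient.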

[1] = dose: 100.0 mg/kg/injection, schedule: Q01DX009 (ip), vehicle: Klucel (hydroxypropylcellulose) (HPC)
[2] = dose: 200.0 mg/kg/injection, schedule: Q01DX009 (ip), vehicle: Klucel (hydroxypropylcellulose) (HPC)
[3] = dose: 400.0 mg/kg/injection, schedule: Q01DX009 (ip), vehicle: Klucel (hydroxypropylcellulose) (HPC)
[4] = dose: 100.0 mg/kg/injection, schedule: Q04DX002 (ip), vehicle: saline with Tween-80
[5] = dose: 200.0 mg/kg/injection, schedule: Q04DX002 (ip), vehicle: saline with Tween-80
[6] = dose: 400.0 mg/kg/injection, schedule: Q04DX002 (ip), vehicle: saline with Tween-80
[7] = dose: 100.0 mg/kg/injection, schedule: Q01DX001 (ip), vehicle: saline
[8] = dose: 200.0 mg/kg/injection, schedule: Q01DX001 (ip), vehicle: saline
[9] = dose: 400.0 mg/kg/injection, schedule: Q01DX001 (ip), vehicle: saline
[10] = dose: 100.0 mg/kg/injection, schedule: Q04DX003 (ip), vehicle: Klucel (hydroxypropylcellulose) (HPC)
[11] = dose: 200.0 mg/kg/injection, schedule: Q04DX003 (ip), vehicle: Klucel (hydroxypropylcellulose) (HPC)
[12] = dose: 400.0 mg/kg/injection, schedule: Q04DX003 (ip), vehicle: Klucel (hydroxypropylcellulose) (HPC)
[13] = dose: 200.0 mg/kg/injection, schedule: Q01DX Z (ip), vehicle: methylcellulose (MC)
[14] = dose: 100.0 mg/kg/injection, schedule: Q01DX009 (ip), vehicle: saline with Tween-80
[15] = dose: 200.0 mg/kg/injection, schedule: Q01DX009 (ip), vehicle: saline with Tween-80

Measured: T/C

COc1ccc(S(=O)(=O)Nc2cc([N+](=O)[O-])ccc2C)cc1
inactive: [1] 100 % of control | [2] 100 % of control | [3] 98 % of control

CCC(C)(C)ON=O
inactive: [4] 107 % of control | [5] 100 % of control | [6] 96 % of control

O=C(CC1NCCCC1O)Cn1cnc2cc3c(cc2c1=O)OCO3 (stereo unspecified)
inactive: dose: 5.0 mg/kg/injection, schedule: Q01DX009 (ip), vehicle: saline 117 % of control | dose: 5.0 mg/kg/injection, schedule: Q04DX003 (ip), vehicle: saline 105 % of control | dose: 10.0 mg/kg/injection, schedule: Q01DX009 (ip), vehicle: saline 122 % of control | dose: 10.0 mg/kg/injection, schedule: Q04DX003 (ip), vehicle: saline 105 % of control | dose: 20.0 mg/kg/injection, schedule: Q01DX009 (ip), vehicle: saline 95 % of control | dose: 20.0 mg/kg/injection, schedule: Q04DX003 (ip), vehicle: saline 117 % of control

O=[N+]([O-])c1ccc(/C([O-])=C(\C(=S)Nc2ccccc2Cl)[n+]2ccccc2)cc1
inactive: [4] 96 % of control | [5] 89 % of control | [6] 96 % of control

CCOC(=O)CCc1c(C(=O)OCC)[nH]c(C)c1C(=O)OC(C)(C)C
inactive: dose: 100.0 mg/kg/injection, schedule: Q01DX001 (ip), vehicle: Klucel (hydroxypropylcellulose) (HPC) 105 % of control | dose: 200.0 mg/kg/injection, schedule: Q01DX001 (ip), vehicle: Klucel (hydroxypropylcellulose) (HPC) 124 % of control | dose: 400.0 mg/kg/injection, schedule: Q01DX001 (ip), vehicle: Klucel (hydroxypropylcellulose) (HPC) 95 % of control

O=C1c2ccccc2C(=O)N1Cc1cccc(Nc2cc(=O)[nH]c(=O)[nH]2)c1
inactive: dose: 200.0 mg/kg/injection, schedule: Q01DX001 (ip), vehicle: saline with Tween-80 95 % of control

N#Cc1cc([N+](=O)[O-])c(Cl)c([N+](=O)[O-])c1Cl
inactive: dose: 3.13 mg/kg/injection, schedule: Q01DX009 (ip), vehicle: saline with Tween-80 95 % of control | dose: 6.25 mg/kg/injection, schedule: Q01DX009 (ip), vehicle: saline with Tween-80 108 % of control | dose: 6.25 mg/kg/injection, schedule: Q04DX003 (ip), vehicle: saline with Tween-80 98 % of control | dose: 12.5 mg/kg/injection, schedule: Q01DX009 (ip), vehicle: saline with Tween-80 101 % of control | dose: 12.5 mg/kg/injection, schedule: Q04DX003 (ip), vehicle: saline with Tween-80 95 % of control

O=C(CNC(=O)c1ccccc1)Nc1ccc([N+](=O)[O-])cc1
inactive: [7] 100 % of control | [8] 100 % of control | [9] 94 % of control

O=C1c2ccccc2C(=O)N1N(c1ccccc1)c1ccccc1
inactive: dose: 50.0 mg/kg/injection, schedule: Q01DX009 (ip), vehicle: Klucel (hydroxypropylcellulose) (HPC) 108 % of control | [10] 95 % of control | [2] 106 % of control | [11] 97 % of control | [3] 103 % of control | [12] 109 % of control

O=[N+]([O-])c1ccc[nH]1
inactive: dose: 100.0 mg/kg/injection, schedule: Q04DX003 (ip), vehicle: saline 98 % of control

O=C(CC(O)(C(F)(F)F)C(F)(F)F)c1ccc(C(=O)CC(O)(C(F)(F)F)C(F)(F)F)cc1
inactive: dose: 50.0 mg/kg/injection, schedule: Q01DX009 (ip), vehicle: other 108 % of control | dose: 100.0 mg/kg/injection, schedule: Q01DX009 (ip), vehicle: other 97 % of control

Cn1nc(C(=O)O)c(=O)[nH]c1=S
inactive: dose: 100.0 mg/kg/injection, schedule: Q01DX Z (ip), vehicle: methylcellulose (MC) 97 % of control | [13] 92 % of control

COc1cc2c(c(OC)c1OC)-c1cc3c(cc1[C@@H](OC(C)=O)[C@@H]1COC(=O)[C@H]1C2)OCO3
inactive: dose: 6.22 mg/kg/injection, schedule: Q01DX009 (ip), vehicle: saline + alcohol 89 % of control | dose: 9.33 mg/kg/injection, schedule: Q01DX009 (ip), vehicle: saline + alcohol 94 % of control | dose: 14.0 mg/kg/injection, schedule: Q01DX009 (ip), vehicle: saline + alcohol 107 % of control | dose: 21.0 mg/kg/injection, schedule: Q01DX009 (ip), vehicle: saline + alcohol 105 % of control

BrCCCCBr
inactive: [7] 103 % of control | [8] 100 % of control | [9] 103 % of control

Oc1ccc(NC(=S)Nc2ccccc2)cc1
inactive: [14] 93 % of control | [15] 88 % of control | dose: 400.0 mg/kg/injection, schedule: Q01DX009 (ip), vehicle: saline with Tween-80 92 % of control

C[C@]1(O)CC[C@H]2[C@@H]3CCC4=CC(=O)CC[C@]4(C)[C@@]3(F)C(=O)C[C@@]21C
inactive: [1] 101 % of control | dose: 100.0 mg/kg/injection, schedule: Q04DX003 (ip), vehicle: other 92 % of control | [2] 101 % of control | dose: 200.0 mg/kg/injection, schedule: Q04DX003 (ip), vehicle: other 108 % of control | [3] 95 % of control | dose: 400.0 mg/kg/injection, schedule: Q04DX003 (ip), vehicle: other 94 % of control

CN1Cc2ccccc2-c2ccccc2C1
inactive: dose: 75.0 mg/kg/injection, schedule: Q01DX001 (ip), vehicle: saline 101 % of control

CC(=C1C2CCC1C(C(=O)N(C)C)C2C(=O)N(C)C)C(Cl)(Cl)Cl (stereo unspecified)
inactive: dose: 100.0 mg/kg/injection, schedule: Q04DX002 (ip), vehicle: Klucel (hydroxypropylcellulose) (HPC) 94 % of control | dose: 200.0 mg/kg/injection, schedule: Q04DX002 (ip), vehicle: Klucel (hydroxypropylcellulose) (HPC) 110 % of control | dose: 400.0 mg/kg/injection, schedule: Q04DX002 (ip), vehicle: Klucel (hydroxypropylcellulose) (HPC) 90 % of control

CCOC1OC(C(O)CO)C(O)C1O (stereo unspecified)
inactive: dose: 100.0 mg/kg/injection, schedule: Q04DX003 (ip), vehicle: saline with Tween-80 98 % of control | dose: 200.0 mg/kg/injection, schedule: Q04DX003 (ip), vehicle: saline with Tween-80 98 % of control | dose: 400.0 mg/kg/injection, schedule: Q04DX003 (ip), vehicle: saline with Tween-80 96 % of control

CCN(C(=O)c1ccc2c3c(cccc13)C=C2)c1ccccc1
inactive: [7] 104 % of control | [8] 98 % of control | [9] 98 % of control

CCOc1ccc(Nc2cccc(O)c2)cc1
inactive: dose: 50.0 mg/kg/injection, schedule: Q01DX009 (ip), vehicle: saline with Tween-80 95 % of control | [14] 103 % of control | [15] 95 % of control

CC[CH2][Pb]([CH2]CC)([CH2]CC)[O]C(=O)C1CCCCC1
inactive: dose: 1.5 mg/kg/injection, schedule: Q01DX009 (ip), vehicle: saline with Tween-80 100 % of control | dose: 1.5 mg/kg/injection, schedule: Q04DX003 (ip), vehicle: saline with Tween-80 106 % of control | dose: 3.0 mg/kg/injection, schedule: Q01DX009 (ip), vehicle: saline with Tween-80 100 % of control | dose: 3.0 mg/kg/injection, schedule: Q04DX003 (ip), vehicle: saline with Tween-80 116 % of control | dose: 6.0 mg/kg/injection, schedule: Q01DX009 (ip), vehicle: saline with Tween-80 104 % of control | dose: 6.0 mg/kg/injection, schedule: Q04DX003 (ip), vehicle: saline with Tween-80 104 % of control

CSc1ccc(N2C(=O)C3C(C2=O)C2(Cl)C(Cl)=C(Cl)C3(Cl)C2(Cl)Cl)cc1 (stereo unspecified)
inactive: [1] 105 % of control | [10] 101 % of control | [2] 100 % of control | [11] 104 % of control | [3] 103 % of control | [12] 98 % of control

NC(=S)NC(=S)Nc1ccccc1
inactive: [10] 103 % of control | [11] 110 % of control | [12] 106 % of control

CSc1ncnc2c1c(Br)cn2C1OC(CO)C(O)C1O (stereo unspecified)
inactive: [7] 100 % of control | [8] 108 % of control | [9] 114 % of control

Nc1nc(N)c(N=O)c(Nc2ccc(O)cc2)n1
inactive: [10] 103 % of control | [13] 91 % of control | [11] 97 % of control | [12] 100 % of control

O=C(O)CCCCCN1C(=O)C2CC=CCC2C1=O (stereo unspecified)
inactive: dose: 6.0 mg/kg/injection, schedule: Q04DX002 (ip), vehicle: saline with Tween-80 106 % of control | dose: 12.5 mg/kg/injection, schedule: Q04DX002 (ip), vehicle: saline with Tween-80 91 % of control | dose: 25.0 mg/kg/injection, schedule: Q04DX002 (ip), vehicle: saline with Tween-80 98 % of control | dose: 50.0 mg/kg/injection, schedule: Q04DX002 (ip), vehicle: saline with Tween-80 102 % of control

COc1cccc(NC(=O)NCCCl)c1OC
inactive: [10] 107 % of control | [11] 96 % of control | [12] 102 % of control
